{"source": "patent US20110306600A1", "about": "“NOVEL THERAPEUTIC COMPOUNDS” (Grunenthal GmbH, priority 2010, published 2011)", "assay": "Thermal tail-flick test on rats", "type": "in vivo, rat", "details": "3 mg/kg injection in saline, against placebo, TFL measured approximately every hour", "description": "Therapeutic Solutions: The compound 2 90 mg was dissolved in 30 ml of saline solution and the injection volume was calculated as 1 ml/kg to achieve 3 mg/kg of compound of Formula 31. The placebo solution was identical except it is devoid of any drug.\nTail-Flick Test: The experimentation was started by selecting ten at least 90-100 days old and were all weighed to determine the volume of experimental and placebo solution. Each rat, was habituated for three days to handling and the tail flick procedure and without heat exposure. In the administration, each animal was only used for one day of experiments, and given only one dose of drug, or placebo solution. The technique of D'Amour and Smith (1941) relies on latency to flick of the tail from onset of a focused beam of intense light. This method, employed for decades, has now been augmented by the ability to monitor temperature at the site of exposure. Columbus Instruments model TF-2 model was warmed, on the day of the experiment, for at least 30 minutes. The intensity of the lamp was adjusted so that baseline tail-flick latency for rats is equal to approximately 2.0 seconds. The intensity was set to 40% as this was determined to be the ideal intensity from the intensity response curve. […] The baseline value was determined for each animal prior to injection. The TFL was measured approximately every hour. The semilog means were calculated.", "data": [{"smiles": "CC12CC3CC(C)(C1)CC(NC(=O)C1(CN)CCCCC1)(C3)C2", "note": "[Formula 2]", "values": [{"measurement": "time course of antinociceptive effect in the thermal tail flick test (FIG. 1)", "result": "antinociceptive effect"}]}]}
